Reference: ChEMBL document CHEMBL1148758, “Guanidine and 2-aminoimidazoline aromatic derivatives as alpha(2)-adrenoceptor antagonists, 1: toward new antidepressants with heteroatomic linkers” (J Med Chem, 2007)

How the values were obtained:
Type in all cases: functional
Rattus norvegicus [1] = experiment: Increase in noradrenergic extracellular noradrenaline level in locally administered Sprague-Dawley rat by microdialysis assay
[2] = molecular target: T1, Adrenergic receptor alpha-2 (Homo sapiens, UniProt P08913+P18825+P18089); experiment: Agonist activity at human brain adrenergic alpha2 receptor by [35S]GTPgammaS binding assay
T1 sequence (P08913 whole entry): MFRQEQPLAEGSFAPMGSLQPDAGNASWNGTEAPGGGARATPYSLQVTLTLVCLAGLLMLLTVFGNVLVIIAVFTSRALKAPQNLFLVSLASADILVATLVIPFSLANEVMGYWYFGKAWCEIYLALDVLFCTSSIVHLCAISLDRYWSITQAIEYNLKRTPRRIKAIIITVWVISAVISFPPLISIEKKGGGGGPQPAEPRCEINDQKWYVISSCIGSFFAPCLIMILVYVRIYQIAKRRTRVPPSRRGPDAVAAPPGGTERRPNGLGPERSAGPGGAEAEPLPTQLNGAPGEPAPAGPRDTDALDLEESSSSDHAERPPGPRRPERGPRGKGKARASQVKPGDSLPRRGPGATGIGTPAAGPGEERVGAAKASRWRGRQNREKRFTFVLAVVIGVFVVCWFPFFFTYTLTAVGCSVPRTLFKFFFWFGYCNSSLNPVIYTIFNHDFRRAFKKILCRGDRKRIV
T1 sequence (P18825 whole entry): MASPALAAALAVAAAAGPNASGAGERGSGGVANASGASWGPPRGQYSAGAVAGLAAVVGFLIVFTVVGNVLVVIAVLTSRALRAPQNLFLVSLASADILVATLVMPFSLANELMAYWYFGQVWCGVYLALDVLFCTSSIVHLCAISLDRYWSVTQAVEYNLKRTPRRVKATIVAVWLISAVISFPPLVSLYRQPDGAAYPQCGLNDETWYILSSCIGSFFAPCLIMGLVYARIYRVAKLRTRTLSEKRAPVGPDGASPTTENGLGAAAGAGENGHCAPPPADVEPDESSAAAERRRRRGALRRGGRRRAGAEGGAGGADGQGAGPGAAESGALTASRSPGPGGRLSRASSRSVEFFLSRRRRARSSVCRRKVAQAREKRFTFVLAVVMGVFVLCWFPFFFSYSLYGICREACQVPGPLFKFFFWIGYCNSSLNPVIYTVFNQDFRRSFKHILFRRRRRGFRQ
T1 sequence (P18089 whole entry): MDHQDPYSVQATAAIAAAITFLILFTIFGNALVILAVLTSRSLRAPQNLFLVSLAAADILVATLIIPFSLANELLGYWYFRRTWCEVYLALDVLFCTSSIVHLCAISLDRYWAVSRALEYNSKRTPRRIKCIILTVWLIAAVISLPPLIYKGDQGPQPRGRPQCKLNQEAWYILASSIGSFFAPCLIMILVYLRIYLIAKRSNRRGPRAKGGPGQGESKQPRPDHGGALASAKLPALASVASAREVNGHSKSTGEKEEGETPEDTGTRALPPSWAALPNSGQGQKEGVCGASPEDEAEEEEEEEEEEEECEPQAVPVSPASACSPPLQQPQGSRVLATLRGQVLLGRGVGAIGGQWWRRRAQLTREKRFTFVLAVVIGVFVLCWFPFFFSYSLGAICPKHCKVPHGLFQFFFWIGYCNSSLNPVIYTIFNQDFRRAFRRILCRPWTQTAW

[3] = molecular target: T1, Adrenergic receptor alpha-2; experiment: Antagonist activity at human brain adrenergic alpha-2 receptor assessed as UK-14304-stimulated [35S]GTPgammaS binding at 10 uM
Rattus norvegicus [4] = experiment: Increase in noradrenergic extracellular noradrenaline level in Sprague-Dawley rat at 8 mg/kg, ip by microdialysis assay; details: route intraperitoneal

**Q.** How did the Activity (Rattus norvegicus [1]) turn out when `COC1(C2=NCCN2)COc2ccccc2O1` (stereo not drawn) was run?
**A.** 287%

**Q.** For `COc1ccc(NC2=NCCN2)cc1`, which EC50 [2] is on record?
**A.** 30.4 µM

**Q.** With `c1cc2c(cc1NC1=NCCN1)OCO2` as the molecule, how does the EC50 [3] read?
**A.** 141 µM

**Q.** And the Activity (Rattus norvegicus [4])?
**A.** 328%

**Q.** And the Activity (Rattus norvegicus [1])?
**A.** 240%

**Q.** Which results are given for `CN(C)c1ccc(NC2=NCCN2)cc1`?
**A.** Activity (Rattus norvegicus [4]): 192%; Activity (Rattus norvegicus [1]): 316%

**Q.** How did the Activity (Rattus norvegicus [1]) turn out when `c1ccc2c(c1)OCC(C1=NCCN1)O2` (stereo not drawn) [IDAZOXAN] was run?
**A.** 235%
